Results published in publication PMC8657723, “Novel Pituitary Actions of TAC4 Gene Products in Teleost” (International Journal of Molecular Sciences, 2021).
Entries after “also recorded” stand apart in the source; their conditions may differ. Ends that are not written are not given here.

Key:
mammals = system: mammals; set-up: method as in PMID 18337115; details: cited from earlier work
six NKR isoforms = experiment: Functional activation of the six grass carp NKR isoforms, NFAT-Luc reporter in HEK293T cells; assay type: cell-based, grass carp (Ctenopharyngodon idellus); details: 24 h
Procedure: To clarify the receptor selectivity of TAC4 gene products, a transfection experiment was conducted in HEK293T cells, and the fluorescent signal was detected by the firefly luciferase reporter gene detection kit. Firstly, the cDNA sequences of neurokinin receptor 1 isoforms a (NK1Ra), neurokinin receptor 1 isoforms b (NK1Rb), NK2R, neurokinin receptor 3 isoforms a1 (NK3Ra1), neurokinin receptor 3 isoforms a2 (NK3Ra2), and neurokinin receptor 3 isoforms b (NK3Rb) were isolated from grass carp pituitary, and the coding region of the six receptors were then subcloned into the eukaryotic expression vector pcDNA3.1. Secondly, the HEK293T cells were co-transfected with the plasmids of NFAT-Luc (Nuclear factor of activated T cells-luciferase), green fluorescent protein (GFP), and each pcDNA3.1-NKRs by using Lipofectamine 3000 (Thermo Fisher). The transfected HEK293T cells were incubated with various concentration HK-1 (1–10,000 nM), HK-2 (1–10,000 nM), or HK1-V7F (1–10,000 nM) for 24 h, respectively. Finally, the transfected cells were collected to detect the luciferase value according to the instructions of the firefly luciferase reporter gene detection kit.
To clarify the receptor selectivity of HK1 and HK2 for the six NKRs, HEK-293T cell lines were established to stably express NK1Ra, NK1Rb, NK2R, NK3Rb, NK3Ra1, or NK3Ra2 were established, respectively. The cells were then used for transfection study with NFAT-Luc vectors, which was allowed for functional evaluation of the activation status of Ca^2+-dependent pathway.
Figure 2 Receptor selectivity of HK1, HK2, and HK1-V7F. The nuclear factor of activated T-cells (NFAT)-Luc reporter together with NK1Ra, NK1Rb, NK2R, NK3Rb, NK3Ra1, or NK3Ra2, were transiently transfected into HEK-293 cells, respectively. The cells were incubated with increasing levels of grass carp HK1, HK2, or HK1-V7F (0.1–1000 nM), respectively. The luciferase activities were normalized against renilla expression in the same sample to adjust for potential variations in transfection efficiency. Each point is determined quadruplicate and is given as a mean ± SEM. The groups denoted by different letters represent significant differences at p-value < 0.05 (ANOVA followed Dunnett’s test).

[1] = system: grass carp pituitary cells; experiment: Antagonist effect of HK1 on HK2-induced mRNA expression in grass carp pituitary cells; assay type: cell-based, grass carp (Ctenopharyngodon idellus); details: HK2 0.1 µM + HK1 1 µM and 10 µM, 24 h
Procedure: (§1) Figure 9 Phe to Val mutation in FXGLM motif in PRL, SLα, and UTS1 regulation by HK2 in grass carp pituitary cells. (A) Effects of HK1-V7F on PRL, SLα, and UTS1 mRNA expression in grass carp pituitary cells. In this experiment, grass carp pituitary cells were incubated for 24 h with increasing levels of HK1-V7F (0.1–1000 nM). (B) Suppressed effects of HK1 on HK2-induced PRL, SLα, and UTS1 mRNA expression in grass carp pituitary cells. Pituitary cells were challenged for 24 h with grass carp HK2 (0.1 µM) in the presence or absence of HK1 (1 µM) and HK1 (10 µM). In these experiment, Trizol method was used to extract total cell RNA, and RT-PCR was used to detect PRL, SLα, and UTS1 mRNA expression. Data presented are expressed as mean ± SEM, and the differences between groups were significant at p-value < 0.05 by labeling diverse letters.
Furthermore, to verify whether HK1 could function as an endogenous antagonist of NKRs, we examined the antagonist effect of HK1 on HK2-induced pituitary hormone genes expression.

NK2R = experiment: Functional activation of grass carp NK2R, NFAT-Luc reporter in HEK293T cells; assay type: cell-based, grass carp (Ctenopharyngodon idellus); details: among the six NKR isoforms
Procedure: To clarify the receptor selectivity of TAC4 gene products, a transfection experiment was conducted in HEK293T cells, and the fluorescent signal was detected by the firefly luciferase reporter gene detection kit. Firstly, the cDNA sequences of neurokinin receptor 1 isoforms a (NK1Ra), neurokinin receptor 1 isoforms b (NK1Rb), NK2R, neurokinin receptor 3 isoforms a1 (NK3Ra1), neurokinin receptor 3 isoforms a2 (NK3Ra2), and neurokinin receptor 3 isoforms b (NK3Rb) were isolated from grass carp pituitary, and the coding region of the six receptors were then subcloned into the eukaryotic expression vector pcDNA3.1. Secondly, the HEK293T cells were co-transfected with the plasmids of NFAT-Luc (Nuclear factor of activated T cells-luciferase), green fluorescent protein (GFP), and each pcDNA3.1-NKRs by using Lipofectamine 3000 (Thermo Fisher). The transfected HEK293T cells were incubated with various concentration HK-1 (1–10,000 nM), HK-2 (1–10,000 nM), or HK1-V7F (1–10,000 nM) for 24 h, respectively. Finally, the transfected cells were collected to detect the luciferase value according to the instructions of the firefly luciferase reporter gene detection kit. […]
Figure 2 Receptor selectivity of HK1, HK2, and HK1-V7F. […] Each point is determined quadruplicate and is given as a mean ± SEM. […]

[2] = system: grass carp pituitary cells; experiment: RT-qPCR of pituitary gene mRNA expression after peptide treatment of grass carp pituitary cells; assay type: cell-based, grass carp (Ctenopharyngodon idellus)
From the text: To further confirm the pituitary actions of HKs in grass carp, trypsin digestion method was used to prepare for grass carp primary cultured pituitary cells. […] After drug treatment, total RNA was extracted from adherent cells by Trizol, and then subjected to reverse transcription using HifairTM III 1st Strand cDNA Synthesis Kit (Yeasen, Shanghai, China). In the present study, β-actin was used as the internal reference gene, and then, the transcript levels of PRL, SLα, CART2, UTS1, and NMB1 were detected by using a ABI 7500 real-time PCR system (see Supplementary Table S2 for primer sequences and PCR condition). In addition, the plasmid DNA containing the gene coding sequence was serially diluted as a standard for data calibration.
In this study, RT-qPCR was used to detect mRNA expression for TAC4, NKRs, PRL, SLα, CART2, UTS1, SN2, and NMB1. In the ABI7500 software, the dynamic mRNA concentration detection range of the double standard curve is 10^5, and the correlation coefficient is >0.95. […] In the transfection experiment, the detected firefly luciferase activity was routinely normalized with the GFP activity expressed in the same well, expressed as the luciferin activity ratio Luc ratio. The data from four parallel experiments was presented as mean ± SEM in the figure. All the data were analyzed by ANOVA, and then subjected to Dunnett’s test in GraphPad Prism 7.0. The significant differences between groups were indicated by p < 0.05.
Figure 5 TAC4 gene products (HK1 and HK2) induced PRL (A) and SLα (B) mRNA expression in grass carp pituitary cells. Time course of grass carp HK1 (1 μM) and HK2 (1 μM) on PRL (A) and SLα (B) mRNA expression in grass carp pituitary cells. Dose-dependence of 24-h treatment with increasing levels of HK1 and HK2 (0.1–1000 nM) on PRL (A) and SLα (B) mRNA expression in grass carp pituitary cells. After drug treatment, the total RNA of the cells was extracted by the Trizol method, and the expression of various genes was detected by RT-PCR. Data presented were expressed as mean ± SEM, and the differences between groups were significant at p-value < 0.05 by labeling diverse letters.
Figure 6 TAC4 gene products (HK1 and HK2) induced CART2, NMB1, and UTS1 mRNA expression in grass carp pituitary cells. Time course of grass carp HK1 (1 μM) and HK2 (1 μM) on CART2 (A), NMB1 (B), and UTS1 (C) mRNA expression in grass carp pituitary cells. Dose-dependence of 24-h treatment with increasing levels of HK1 or HK2 (0.1–1000 nM) on CART2 (A), NMB1 (B), and UTS1 (C) mRNA expression in grass carp pituitary cells. After drug treatment, the total RNA of the cells was extracted by the Trizol method, and the expression of various genes were detected by RT-PCR. Data presented were expressed as mean ± SEM, and the differences between groups were significant at p-value < 0.05 by labeling diverse letters.
as §1

[3] = 1 µM, 3 h, 6 h, 24 h, 48 h, RT-qPCR, β-actin
[4] = 0.1–1000 nM, 24 h, RT-qPCR, β-actin
[5] = Figure 9B, 24 h static incubation, HK2 0.1 µM

For “CRH: corticortropin-releasing hormone (SEEPPISLDLTFHLLREVLEMARAEQLAQQAHSNRKLMEII; ends and bridges not checked; UniProt P06850 154-194, looked up)”, the “food intake and energy expenditure” value (mammals) is listed as “reduce food intake and induce energy expenditure”.
In the case of “TPGLQQVFGLM-NH2 [HK1, grass carp TAC4 mature peptide, …-NH2]”, the “ED50, NFAT-Luc luciferase activity, NKR isoforms” value (six NKR isoforms; HEK-293T expressing each NKR) was greater than 10 µM, the “activation of the six NKR isoforms (in words)” value (six NKR isoforms; NFAT-Luc luciferase, HEK293T, NK1Ra, NK1Rb, NK2R, NK3Ra1, NK3Ra2, NK3Rb) was “very weak activation; also recorded: relatively low efficient stimulant; also recorded: could barely activate any NKR isoforms” and the “suppression of HK2-induced PRL mRNA expression” value [1] was “could not suppress; also recorded: could not block”. For the same substance, the “suppression of HK2-induced SLα mRNA expression” value [1] was “could not suppress; also recorded: could not block”, the “suppression of HK2-induced UTS1 mRNA expression” value [1] was “could not suppress; also recorded: could not block” and the “NK2R activation (in words)” value (NK2R) was “very weak activation”. The “CART2 mRNA expression, time course” value [2, 3] was “no effect”, the “NMB1 mRNA expression, time course” value [2, 3] was “no effect” and the “PRL mRNA expression, time course” value [2, 3] was “no effect”. For the same substance, the “SLα mRNA expression, time course” value [2, 3] was “no effect”, the “UTS1 mRNA expression, time course” value [2, 3] was “no effect” and the “CART2 mRNA expression, dose-dependence” value [2, 4] was “ineffective”. The “NMB1 mRNA expression, dose-dependence” value [2, 4] was “ineffective”, the “PRL mRNA expression, dose-dependence” value [2, 4] was “ineffective” and the “SLα mRNA expression, dose-dependence” value [2, 4] was “ineffective”. The “UTS1 mRNA expression, dose-dependence” value [2, 4] was “ineffective”, the “PRL mRNA stimulation compared to HK2” value [2, 5] was “much weaker” and the “SLα mRNA stimulation compared to HK2” value [2, 5] was “much weaker”. The “UTS1 mRNA stimulation compared to HK2” value [2, 5] was “much weaker” and the “pituitary genes' expression (summary)” value ([2]; grass carp pituitary cells, PRL, SLα, UTS1, NMB1, CART2) was “notably weaker; also recorded: ineffective for the six pituitary genes’ expression”.
